Literature values, collected in US20230124124A1, “COMPOSITIONS AND METHODS FOR MYOPIA CONTROL AND ORTHOKERATOLOGY LENSES TREATMENT” (Ocular Science, Inc., priority 2021, published 2023).

Assays:
corneas = conditions: one week of treatment
[1] = system: human corneal epithelial cells; conditions: 0.01% BAK; within hours

Question: With benzalkonium chloride [BAK] as the substance, how does the aqueous tear production (corneas) read?
Answer: Its aqueous tear production is “significantly reduced”.

Question: What about the fluorescein staining (corneas) of the same substance?
Answer: Its fluorescein staining is “increased”.

Question: And the inflammatory cell infiltration (corneas)?
Answer: Its inflammatory cell infiltration is “increased”.

Question: And the “stromal nerve fiber density (NFD)” value (corneas)?
Answer: The value was “significantly reduced”.

Question: And the “effect on human corneal epithelial cells” value [1]?
Answer: The value was “immediate cell retraction, cessation of normal cytokinesis and mitotic activity, and degeneration of human corneal epithelial cells”.
